The values that follow come from Sander's compilation of Henry's law constants.

SMILES strings stand for the structures.

Series [1] in a line: Henry solubility constant Hcp at 296 K (mol/(m3 Pa)).
A short description of series [2]: Henry solubility constant Hcp at 298.15 K (mol/(m3 Pa)).
The mark [3] stands for this setting: reference: Fendinger et al. (1989).
Where [4] appears, read: reference: Miller and Stuart (2000).
Where [5] appears, read: reference: Arp and Schmidt (2004).
[6] abbreviates: reference: Warner et al. (1980).
The mark [7] stands for this setting: reference: Xu and Kropscott (2014).
Where [8] appears, read: reference: Fendinger and Glotfelty (1988).

`Clc1ccc(C(c2ccc(Cl)cc2)C(Cl)(Cl)Cl)cc1` [1,1,1-trichloro-2,2-bis-(4-chlorophenyl)-ethane]: the “Henry solubility constant Hcp at 296 K” value in series [1] (setting [3]) is 0.77. The “Henry solubility constant Hcp” value in series [2] (setting [3]) worked out at 1.2.

Take `CCCCOCC` [1-ethoxy-butane]: the “Henry solubility constant Hcp at 296 K” value in series [1] (setting [4]) is 0.0064.

In the case of `CCC(C)(C)OC` [2-methoxy-2-methylbutane], in series [1] (setting [4]), the “Henry solubility constant Hcp at 296 K” value is 0.0052. The “Henry solubility constant Hcp” value in series [2] (setting [5]) came to 0.0086; in series [2] (reference: Haimi et al. (2006)), 0.01; in series [2] (reference: Hwang et al. (2010)), 0.053; in series [2] (reference: Park et al. (1997)), 0.007.

Take `ClC1=C(Cl)[C@]2(Cl)C3C(Cl)C(Cl)CC3[C@@]1(Cl)C2(Cl)Cl` (stereo partly drawn) [chlordane]: the “Henry solubility constant Hcp at 296 K” value in series [1] (setting [3]) came to 0.18. Further, the “Henry solubility constant Hcp” value in series [2] (setting [3]) was 0.12; in series [2] (setting [6]), 0.21.

As for `C[Si]1(C)O[Si](C)(C)O[Si](C)(C)O[Si](C)(C)O[Si](C)(C)O1` [decamethylcyclopentasiloxane], the “Henry solubility constant Hcp at 296 K” value in series [1] (reference: David et al. (2000)) came out at 7.4e-05. Further, the “Henry solubility constant Hcp” value amounted to 3e-07 in series [2] (reference: Xu and Kropscott (2012)); 2.8e-07 in series [2] (setting [7]).

In the case of `CCOP(=S)(OCC)Oc1cc(C)nc(C(C)C)n1` [diazinon], the “Henry solubility constant Hcp at 296 K” value in series [1] (setting [8]) was 88; in series [1] (setting [3]) it was 84. The “Henry solubility constant Hcp” value in series [2] (reference: Feigenbrugel et al. (2004a)) was 15.

In the case of `CCCCOC(=O)c1ccccc1C(=O)OCCCC` [dibutyl phthalate], in series [1] (reference: Atlas et al. (1983)), the “Henry solubility constant Hcp at 296 K” value amounted to 5.5.

In the case of `CC(C)OC(C)C` [diisopropyl ether], the “Henry solubility constant Hcp at 296 K” value in series [1] (setting [4]) amounted to 0.0043. Also, the “Henry solubility constant Hcp” value in series [2] (setting [5]) was found to be 0.0039; in series [2] (reference: Hwang et al. (2010)) it was 0.015; in series [2] (reference: Nielsen et al. (1994)), 0.0048.

Turning to `CCOC(C)(C)C` [ethyl tert-butyl ether], the “Henry solubility constant Hcp at 296 K” value in series [1] (setting [4]) worked out at 0.0042. Besides, the “Henry solubility constant Hcp” value came to 0.0061 in series [2] (setting [5]), 0.0064 in series [2] (reference: Haimi et al. (2006)), 0.12 in series [2] (reference: Hwang et al. (2010)) and 0.0063 in series [2] (reference: Sieg et al. (2009)).

Consider `CCc1ccccc1` [ethylbenzene], for which, in series [1] (setting [4]), the “Henry solubility constant Hcp at 296 K” value came out at 0.0016. In addition, the “Henry solubility constant Hcp” value in series [2] (reference: Allen et al. (1998)) was 0.0013; in series [2] (reference: Bissonette et al. (1990)), 0.0011; in series [2] (reference: Brown and Wasik (1974)), 0.0013; in series [2] (reference: Ervin et al. (1980)), 0.0014; in series [2] (reference: Hartkopf and Karger (1973)) it was 0.0016; in series [2] (reference: Heidman et al. (1985)), 0.0013. Also, the “Henry solubility constant Hcp” value in series [2] (reference: Li et al. (2008)) was found to be 0.0014; in series [2] (reference: Lodge and Danso (2007)), 0.0011; in series [2] (reference: Mackay et al. (1979)), 0.0012; in series [2] (reference: Perlinger et al. (1993)), 0.0013; in series [2] (reference: Robbins et al. (1993)) it was 0.0013; in series [2] (reference: Sanemasa et al. (1981)), 0.0014. For the same molecule, the “Henry solubility constant Hcp” value came to 0.0013 in series [2] (reference: Sieg et al. (2009)), 0.0011 in series [2] (reference: Turner et al. (1996)) and 0.0015 in series [2] (setting [6]).

Regarding `C[Si](C)(C)O[Si](C)(C)C` [hexamethyldisiloxane], the “Henry solubility constant Hcp at 296 K” value in series [1] (reference: David et al. (2000)) came to 7.7e-07. The “Henry solubility constant Hcp” value in series [2] (setting [7]) was 1.3e-06.

In the case of `CCCCC=O` [pentanal], the “Henry solubility constant Hcp at 296 K” value in series [1] (reference: Liu et al. (2015)) was found to be 0.068. The “Henry solubility constant Hcp” value came to 0.058 in series [2] (reference: Buttery et al. (1965)); 0.071 in series [2] (reference: Ji and Evans (2007)).

With `ClC1C(Cl)C(Cl)C(Cl)C(Cl)C1Cl` (stereo not drawn) [γ-1,2,3,4,5,6-hexachlorocyclohexane], the “Henry solubility constant Hcp at 296 K” value in series [1] (setting [8]) turned out to be 5; in series [1] (setting [3]) it was 4.9. For the same molecule, the “Henry solubility constant Hcp” value in series [2] (reference: Kucklick et al. (1991)) amounted to 2.8; in series [2] (reference: Sahsuvar et al. (2003)), 4.3; in series [2] (reference: Xie et al. (2004)), 6.
